In ChEMBL document CHEMBL4507310, “Data for DCP probe A-1211212” (2021):

Columns and labels:
[1] = target: Cyclin-dependent kinase 2 (Homo sapiens) (UniProt P24941); settings: Compound concentration 1000.0 nM
[2] = target: Dual specificity protein kinase CLK4 (Homo sapiens) (UniProt Q9HAZ1); settings: Compound concentration 1000.0 nM
[3] = target: Serine/threonine-protein kinase MRCK beta (Homo sapiens) (UniProt Q9Y5S2); settings: Compound concentration 1000.0 nM
[4] = target: Interleukin-1 receptor-associated kinase 1 (Homo sapiens) (UniProt P51617); settings: Compound concentration 1000.0 nM
[5] = target: T1, 5-hydroxytryptamine receptor 3A (Homo sapiens) (UniProt P46098); settings: Compound concentration 10.0 uM
T1 sequence (whole entry): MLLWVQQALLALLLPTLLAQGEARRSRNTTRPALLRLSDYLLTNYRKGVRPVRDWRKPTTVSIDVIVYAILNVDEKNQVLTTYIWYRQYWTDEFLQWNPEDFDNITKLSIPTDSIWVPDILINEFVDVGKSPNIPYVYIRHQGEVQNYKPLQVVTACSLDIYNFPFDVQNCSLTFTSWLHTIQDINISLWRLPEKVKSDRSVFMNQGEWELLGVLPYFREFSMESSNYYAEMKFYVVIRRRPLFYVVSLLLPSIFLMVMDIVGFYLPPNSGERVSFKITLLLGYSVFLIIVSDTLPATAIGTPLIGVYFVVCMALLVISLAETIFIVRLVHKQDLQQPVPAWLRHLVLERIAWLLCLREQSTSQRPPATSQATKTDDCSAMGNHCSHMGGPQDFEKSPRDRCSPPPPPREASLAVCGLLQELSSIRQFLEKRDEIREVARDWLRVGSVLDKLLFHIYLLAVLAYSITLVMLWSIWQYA

[6] = target: Mitogen-activated protein kinase 9 (Homo sapiens) (UniProt P45984); settings: Compound concentration 1000.0 nM
Na+ channel (site 2) = Na+ channel (site 2) (Rattus norvegicus, UniProt F1LQQ7+O08562+O88420+O88457+P04774+P04775+P08104+P15389+P15390+Q62968); test: Na+ channel (site 2) Eurofins-Cerep binding assay; format: protein assay; parameters: incubation time 60 min, incubation temperature 37°C, ligand concentration 10 nM; settings: rat cerebral cortex, probe [3H]batrachotoxin (10 nM), compound concentration 10 uM, read-out: % Inhibition of Control Specific Binding (Mean n=2)
[7] = target: Tyrosine-protein kinase BTK (Homo sapiens) (UniProt Q06187); settings: Compound concentration 1000.0 nM
[8] = target: Serine/threonine-protein kinase BRSK1 (Homo sapiens) (UniProt Q8TDC3); settings: Compound concentration 1000.0 nM
[9] = target: Adenosine receptor A3 (Homo sapiens) (UniProt P0DMS8); test: A3 (h) Eurofins-Cerep binding assay; parameters: ligand concentration 0.15 nM; settings: filed as agonist, Compound concentration 10.0 uM
[10] = target: Bone morphogenetic protein receptor type-1B (Homo sapiens) (UniProt O00238); settings: Compound concentration 1000.0 nM
[11] = target: Serine/threonine-protein kinase PknB (Mycobacterium tuberculosis) (UniProt P9WI81); settings: Compound concentration 1000.0 nM
[12] = target: Receptor-interacting serine/threonine-protein kinase 2 (Homo sapiens) (UniProt O43353); settings: Compound concentration 1000.0 nM
[13] = target: Calcium/calmodulin-dependent protein kinase type IV (Homo sapiens) (UniProt Q16566); settings: Compound concentration 1000.0 nM
[14] = test system: Mast/stem cell growth factor receptor Kit (Homo sapiens), P10721 [D816H]; settings: Compound concentration 1000.0 nM
[15] = test system: Epidermal growth factor receptor (Homo sapiens), P00533 [UNDEFINED MUTATION]; settings: Compound concentration 1000.0 nM
[16] = target: Serine/threonine-protein kinase D2 (Homo sapiens) (UniProt Q9BZL6); settings: Compound concentration 1000.0 nM
[17] = target: Calcium/calmodulin-dependent protein kinase kinase 1 (Homo sapiens) (UniProt Q8N5S9); settings: Compound concentration 1000.0 nM
[18] = target: G protein-coupled receptor kinase 4 (Homo sapiens) (UniProt P32298); settings: Compound concentration 1000.0 nM
[19] = target: Ephrin type-A receptor 3 (Homo sapiens) (UniProt P29320); settings: Compound concentration 1000.0 nM
[20] = target: Alpha-2C adrenergic receptor (Homo sapiens) (UniProt P18825); settings: Compound concentration 10.0 uM
[21] = target: Serine/threonine-protein kinase 26 (Homo sapiens) (UniProt Q9P289); settings: Compound concentration 1000.0 nM
[22] = target: Ribosomal protein S6 kinase alpha-2 (Homo sapiens) (UniProt Q15349); settings: Compound concentration 1000.0 nM
[23] = target: Ribosomal protein S6 kinase alpha-4 (Homo sapiens) (UniProt O75676); settings: Compound concentration 1000.0 nM
[24] = target: Dual specificity tyrosine-phosphorylation-regulated kinase 1A (Homo sapiens) (UniProt Q13627); settings: Compound concentration 1000.0 nM
[25] = target: Muscle, skeletal receptor tyrosine-protein kinase (Homo sapiens) (UniProt O15146); settings: Compound concentration 1000.0 nM
[26] = target: Serine/threonine-protein kinase WNK2 (Homo sapiens) (UniProt Q9Y3S1); settings: Compound concentration 1000.0 nM
[27] = target: GABA-A receptor; anion channel (Rattus norvegicus) (UniProt O09028+P15431+P18506+P18508+P19969+P20236+P23574+P23576+P28471+P28473+P30191+P62813+P63079+P63138+Q91ZM7+Q9ES14); settings: Compound concentration 10.0 uM
[28] = target: Phosphorylase b kinase regulatory subunit alpha, liver isoform (Homo sapiens) (UniProt P46019); settings: Compound concentration 1000.0 nM
[29] = target: Dual specificity mitogen-activated protein kinase kinase 3 (Homo sapiens) (UniProt P46734); settings: Compound concentration 1000.0 nM
[30] = target: Serine/threonine-protein kinase/endoribonuclease IRE1 (Homo sapiens) (UniProt O75460); settings: Compound concentration 1000.0 nM
[31] = target: Sodium-dependent serotonin transporter (Homo sapiens) (UniProt P31645); test: 5-HT transporter (h) Eurofins-Cerep binding assay; parameters: ligand concentration 2 nM; settings: filed as antagonist, Compound concentration 10.0 uM
[32] = target: Fibroblast growth factor receptor 1 (Homo sapiens) (UniProt P11362); settings: Compound concentration 1000.0 nM
[33] = test system: Fibroblast growth factor receptor 3 (Homo sapiens), P22607 [G697C]; settings: Compound concentration 1000.0 nM
[34] = target: D(1A) dopamine receptor (Homo sapiens) (UniProt P21728); settings: Compound concentration 10.0 uM
Sequence of D(1A) dopamine receptor (Homo sapiens) (P21728 whole entry): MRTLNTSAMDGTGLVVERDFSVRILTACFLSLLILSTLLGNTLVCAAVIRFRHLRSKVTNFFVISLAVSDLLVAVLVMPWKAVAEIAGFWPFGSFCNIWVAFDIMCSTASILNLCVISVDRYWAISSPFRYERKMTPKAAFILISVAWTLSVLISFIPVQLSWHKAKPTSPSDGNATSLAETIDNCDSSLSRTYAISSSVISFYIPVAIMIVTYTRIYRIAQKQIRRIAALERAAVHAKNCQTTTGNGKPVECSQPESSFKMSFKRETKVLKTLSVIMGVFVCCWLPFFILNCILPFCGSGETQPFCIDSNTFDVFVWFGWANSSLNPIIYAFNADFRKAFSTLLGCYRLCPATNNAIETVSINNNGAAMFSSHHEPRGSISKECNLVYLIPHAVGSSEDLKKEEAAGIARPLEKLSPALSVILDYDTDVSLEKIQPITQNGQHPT

Sequence of Serine/threonine-protein kinase D2 (Homo sapiens) (Q9BZL6 whole entry): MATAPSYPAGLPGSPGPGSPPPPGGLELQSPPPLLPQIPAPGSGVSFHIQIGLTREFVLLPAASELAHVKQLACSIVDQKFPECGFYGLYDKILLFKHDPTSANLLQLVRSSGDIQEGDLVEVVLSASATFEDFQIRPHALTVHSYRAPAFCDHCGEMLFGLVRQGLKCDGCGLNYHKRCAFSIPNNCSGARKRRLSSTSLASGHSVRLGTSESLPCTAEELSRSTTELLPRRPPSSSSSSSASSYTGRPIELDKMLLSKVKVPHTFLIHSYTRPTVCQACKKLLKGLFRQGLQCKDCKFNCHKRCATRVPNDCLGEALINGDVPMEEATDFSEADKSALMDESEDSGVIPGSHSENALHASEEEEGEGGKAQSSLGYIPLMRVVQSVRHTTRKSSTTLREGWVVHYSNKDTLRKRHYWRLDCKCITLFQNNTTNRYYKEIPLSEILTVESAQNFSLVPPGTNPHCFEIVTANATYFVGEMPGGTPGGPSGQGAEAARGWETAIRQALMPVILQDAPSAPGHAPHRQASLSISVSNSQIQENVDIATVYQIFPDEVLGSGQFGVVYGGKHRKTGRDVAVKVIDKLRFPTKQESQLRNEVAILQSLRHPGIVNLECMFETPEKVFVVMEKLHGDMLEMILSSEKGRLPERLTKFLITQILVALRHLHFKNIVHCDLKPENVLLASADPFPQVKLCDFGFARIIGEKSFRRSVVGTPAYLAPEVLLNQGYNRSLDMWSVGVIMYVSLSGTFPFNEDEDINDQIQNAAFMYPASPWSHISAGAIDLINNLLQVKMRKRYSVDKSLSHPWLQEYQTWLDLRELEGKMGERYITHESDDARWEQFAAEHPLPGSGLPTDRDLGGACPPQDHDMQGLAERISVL
Sequence of Receptor-interacting serine/threonine-protein kinase 2 (Homo sapiens) (O43353 whole entry): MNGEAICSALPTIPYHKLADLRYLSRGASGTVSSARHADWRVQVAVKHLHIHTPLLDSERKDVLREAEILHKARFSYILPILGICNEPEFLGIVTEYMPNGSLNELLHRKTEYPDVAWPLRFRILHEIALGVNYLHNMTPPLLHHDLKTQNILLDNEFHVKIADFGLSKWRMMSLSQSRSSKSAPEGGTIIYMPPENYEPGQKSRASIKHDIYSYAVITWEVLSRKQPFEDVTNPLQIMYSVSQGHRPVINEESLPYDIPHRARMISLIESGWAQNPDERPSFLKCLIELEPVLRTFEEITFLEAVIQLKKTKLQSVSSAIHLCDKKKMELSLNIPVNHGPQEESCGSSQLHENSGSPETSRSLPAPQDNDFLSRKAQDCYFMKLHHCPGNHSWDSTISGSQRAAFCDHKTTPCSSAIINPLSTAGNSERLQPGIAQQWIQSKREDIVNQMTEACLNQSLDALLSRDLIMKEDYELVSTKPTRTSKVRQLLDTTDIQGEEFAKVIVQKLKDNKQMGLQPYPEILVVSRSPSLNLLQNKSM
Sequence of Calcium/calmodulin-dependent protein kinase type IV (Homo sapiens) (Q16566 whole entry): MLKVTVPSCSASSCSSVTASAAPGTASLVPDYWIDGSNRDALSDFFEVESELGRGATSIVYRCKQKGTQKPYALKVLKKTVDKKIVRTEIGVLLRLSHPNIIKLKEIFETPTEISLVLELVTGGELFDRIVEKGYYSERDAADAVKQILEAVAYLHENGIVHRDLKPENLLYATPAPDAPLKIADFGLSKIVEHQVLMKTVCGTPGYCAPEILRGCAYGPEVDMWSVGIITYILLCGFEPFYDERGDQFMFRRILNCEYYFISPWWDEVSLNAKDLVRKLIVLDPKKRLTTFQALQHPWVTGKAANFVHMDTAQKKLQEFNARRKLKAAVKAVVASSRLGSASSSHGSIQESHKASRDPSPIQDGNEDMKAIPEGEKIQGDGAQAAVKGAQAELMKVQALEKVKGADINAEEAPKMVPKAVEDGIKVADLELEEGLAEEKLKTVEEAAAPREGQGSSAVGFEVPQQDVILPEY
Sequence of Fibroblast growth factor receptor 1 (Homo sapiens) (P11362 22-822 limits assumed): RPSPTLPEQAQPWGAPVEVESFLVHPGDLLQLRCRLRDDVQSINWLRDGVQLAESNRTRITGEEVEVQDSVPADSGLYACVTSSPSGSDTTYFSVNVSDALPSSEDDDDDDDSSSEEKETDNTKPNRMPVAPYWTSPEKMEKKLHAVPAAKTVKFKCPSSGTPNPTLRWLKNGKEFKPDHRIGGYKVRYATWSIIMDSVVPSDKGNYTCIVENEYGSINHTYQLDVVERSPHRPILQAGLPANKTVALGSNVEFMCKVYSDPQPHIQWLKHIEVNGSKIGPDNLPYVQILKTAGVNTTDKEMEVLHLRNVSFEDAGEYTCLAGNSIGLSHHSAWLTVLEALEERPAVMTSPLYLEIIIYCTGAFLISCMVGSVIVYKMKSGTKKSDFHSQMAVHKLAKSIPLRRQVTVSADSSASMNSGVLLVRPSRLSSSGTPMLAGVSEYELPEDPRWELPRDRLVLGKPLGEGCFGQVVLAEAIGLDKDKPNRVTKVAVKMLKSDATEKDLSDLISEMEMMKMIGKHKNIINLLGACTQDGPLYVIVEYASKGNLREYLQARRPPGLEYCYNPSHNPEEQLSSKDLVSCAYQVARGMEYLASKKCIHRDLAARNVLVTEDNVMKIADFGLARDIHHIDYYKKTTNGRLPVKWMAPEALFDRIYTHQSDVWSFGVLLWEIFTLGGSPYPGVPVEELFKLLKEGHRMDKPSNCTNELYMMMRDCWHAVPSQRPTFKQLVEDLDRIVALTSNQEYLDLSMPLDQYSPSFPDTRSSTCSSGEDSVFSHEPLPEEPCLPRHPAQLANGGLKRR
Sequence of G protein-coupled receptor kinase 4 (Homo sapiens) (P32298 whole entry, looked up): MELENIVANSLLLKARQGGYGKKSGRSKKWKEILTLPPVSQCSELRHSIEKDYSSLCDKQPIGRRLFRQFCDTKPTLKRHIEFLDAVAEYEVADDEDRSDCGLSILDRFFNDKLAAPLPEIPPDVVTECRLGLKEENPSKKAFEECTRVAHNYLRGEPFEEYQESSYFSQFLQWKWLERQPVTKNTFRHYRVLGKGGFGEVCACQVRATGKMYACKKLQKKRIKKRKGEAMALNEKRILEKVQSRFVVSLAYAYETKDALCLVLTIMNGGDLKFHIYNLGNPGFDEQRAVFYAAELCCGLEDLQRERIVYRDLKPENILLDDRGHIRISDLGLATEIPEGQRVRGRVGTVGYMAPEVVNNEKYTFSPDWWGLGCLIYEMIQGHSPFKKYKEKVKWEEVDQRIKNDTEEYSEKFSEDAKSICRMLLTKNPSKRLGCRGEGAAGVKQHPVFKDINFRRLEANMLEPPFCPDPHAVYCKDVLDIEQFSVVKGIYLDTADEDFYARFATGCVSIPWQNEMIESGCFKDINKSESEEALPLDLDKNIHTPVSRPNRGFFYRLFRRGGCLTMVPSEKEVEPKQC
Sequence of Tyrosine-protein kinase BTK (Homo sapiens) (Q06187 whole entry): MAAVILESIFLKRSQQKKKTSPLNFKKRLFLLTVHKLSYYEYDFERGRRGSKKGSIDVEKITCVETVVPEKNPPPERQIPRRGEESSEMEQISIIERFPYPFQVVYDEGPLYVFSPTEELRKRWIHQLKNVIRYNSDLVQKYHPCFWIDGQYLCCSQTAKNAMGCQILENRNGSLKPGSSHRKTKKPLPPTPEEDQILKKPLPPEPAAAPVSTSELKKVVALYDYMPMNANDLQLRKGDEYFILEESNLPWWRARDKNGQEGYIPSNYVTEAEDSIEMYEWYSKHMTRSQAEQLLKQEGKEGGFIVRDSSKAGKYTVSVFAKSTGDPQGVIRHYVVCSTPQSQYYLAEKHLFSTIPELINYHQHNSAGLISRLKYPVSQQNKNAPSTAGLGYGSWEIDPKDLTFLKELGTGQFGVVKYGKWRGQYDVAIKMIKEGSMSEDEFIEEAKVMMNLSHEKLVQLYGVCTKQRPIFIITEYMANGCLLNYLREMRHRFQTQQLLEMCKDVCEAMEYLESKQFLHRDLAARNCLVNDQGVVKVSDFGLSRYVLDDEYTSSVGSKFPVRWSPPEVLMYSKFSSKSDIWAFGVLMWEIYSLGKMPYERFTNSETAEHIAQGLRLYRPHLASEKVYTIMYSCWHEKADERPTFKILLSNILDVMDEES
Sequence of Dual specificity protein kinase CLK4 (Homo sapiens) (Q9HAZ1 whole entry, looked up): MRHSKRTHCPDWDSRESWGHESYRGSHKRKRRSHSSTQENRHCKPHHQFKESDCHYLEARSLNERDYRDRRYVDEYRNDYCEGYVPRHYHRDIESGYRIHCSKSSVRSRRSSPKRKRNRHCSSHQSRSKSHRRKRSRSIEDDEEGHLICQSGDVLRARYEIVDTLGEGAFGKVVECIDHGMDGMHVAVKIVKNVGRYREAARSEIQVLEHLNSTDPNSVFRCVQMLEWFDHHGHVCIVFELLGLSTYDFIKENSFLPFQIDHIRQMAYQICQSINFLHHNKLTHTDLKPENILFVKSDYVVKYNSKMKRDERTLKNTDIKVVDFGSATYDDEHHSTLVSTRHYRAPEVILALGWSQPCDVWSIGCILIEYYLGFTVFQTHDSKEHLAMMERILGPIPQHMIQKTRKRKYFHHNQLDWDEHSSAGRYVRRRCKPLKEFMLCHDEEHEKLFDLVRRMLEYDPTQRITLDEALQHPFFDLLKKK

SMILES | residual activity [1] | residual activity [2] | residual activity [3] | residual activity [4] | inhibition [5] | residual activity [6] | inhibition at 60 min, 10 µM (Na+ channel (site 2)) | residual activity [7] | residual activity [8] | % Inhibition of Control Specific Binding (Mean n=2) [9] | residual activity [10] | residual activity [11] | residual activity [12] | residual activity [13] | residual activity [14] | residual activity [15] | residual activity [16] | residual activity [17] | residual activity [18] | residual activity [19] | also measured
O=C(NS(=O)(=O)c1ccc(NCC2CCOCC2)c([N+](=O)[O-])c1)c1ccc(N2CCN(Cc3ccc(C(F)(F)F)cc3-c3ccc(Cl)cc3)CC2)cc1Oc1cnc2[nH]ccc2c1 [A-1210227] | 100% | 100% | 94% | 96% | 8.67% | 85% | -8.2% | 100% | 100% | 6.5% | 89% | 90% | 100% | 100% | 76% | 81% | 100% | 92% | 100% | 100% | inhibition [20]: 12.7%; residual activity [21]: 72%; residual activity [22]: 100%; residual activity [23]: 100%; residual activity [24]: 63%; residual activity [25]: 98%; residual activity [26]: 75%; inhibition [27]: 14.5%; residual activity [28]: 83%; residual activity [29]: 80%; residual activity [30]: 90%; % Inhibition of Control Specific Binding (Mean n=2) [31]: 0.4%; residual activity [32]: 91%; residual activity [33]: 100%; inhibition [34]: 34.2%
CO[C@H]1CC[C@H](CNc2ccc(S(=O)(=O)NC(=O)c3ccc(N4CCN(CC5=C(c6ccc(Cl)cc6)CC(C)(C)CC5)CC4)cc3Oc3cnc4[nH]ccc4c3)cc2[N+](=O)[O-])CC1 [A-1211212] | 100% | 58% | 100% | 96% | 7.56% | 82% | -2.3% | 100% | 100% | 13.3% | 92% | 86% | 85% | 100% | 76% | 61% | 100% | 83% | 100% | 90% | inhibition [20]: 15.6%; residual activity [21]: 97%; residual activity [22]: 97%; residual activity [23]: 95%; residual activity [24]: 65%; residual activity [25]: 100%; residual activity [26]: 76%; inhibition [27]: 19%; residual activity [28]: 74%; residual activity [29]: 92%; residual activity [30]: 89%; % Inhibition of Control Specific Binding (Mean n=2) [31]: -2.2%; residual activity [32]: 68%; residual activity [33]: 100%; inhibition [34]: 28.2%
